# In patent US20220096376A1, “DRUG DELIVERY PLATFORM USING W/O/W-TYPE TRIOLEIN EMULSION PROMOTIVE OF BLOOD-BRAIN BARRIER OPENING” (PUSAN NATIONAL UNIVERSITY INDUSTRY-UNIVERSITY COOPERATION …, priority 2019, published 2022):
# Values joined by “and” are separate entries in the source; they are usually repeats but may differ in a detail not shown here. Identical values can stand only once.
# Assay: Confirmation of drug delivery activity to brain (doxorubicin concentration by fluorometer)
# Format: in vivo
# Conditions: rabbit
# Procedure: A triolein emulsion having a W/O/W double structure and an average particle diameter of 7 μm was prepared in the same manner as described above. After diluting by mixing 0.2 ml (2%) of the emulsion in 10 ml of physiological saline, 7 ml of the emulsion diluted in the same procedure as in the experiment in which the trypan blue was added to 1.7 kg male rabbits distributed from Semtako and doxorubicin, a water-soluble drug, were injected, and 2 hours later, the brain of the rabbit was excised and the concentration of doxorubicin was measured using a fluorometer. At this time, three brain tissues were taken off and measured three times.
# [1] = 7 ml diluted W/O/W triolein emulsion and doxorubicin injected, 2 hours later, single measurements
# [2] = with W/O/W triolein emulsion, 2 hours, Average
structure (smiles),measurement,setting,value
"COc1cccc2c1C(=O)c1c(O)c3c(c(O)c1C2=O)C[C@@](O)(C(=O)CO)C[C@@H]3O[C@H]1C[C@H](N)[C@H](O)[C@H](C)O1 [Doxorubicin, doxorubicin]",Doxorubicin concentration in the left brain (RFU),[1],64 RFU and 77 RFU and 89 RFU and 78 RFU and 65 RFU and 70 RFU and 53 RFU and 88 RFU
same,Doxorubicin concentration in the right brain (RFU),[1],420 RFU and 445 RFU and 431 RFU and 444 RFU and 455 RFU and 464 RFU and 437 RFU and 428 RFU
same,Doxorubicin concentration in the left brain (RFU),[2],73.56 RFU
same,Doxorubicin concentration in the right brain (RFU),[2],439.11 RFU
same,Right brain doxorubicin/left brain doxorubicin ratio,[2],6.12
